In ChEMBL document CHEMBL1135214, “Meiosis activating sterols derived from diosgenin” (2002):
The source made the active and inactive calls. No cut-off for these calls is given here.

species on record: Mus musculus; test: Tested for ability to induce meiosis in immature mouse oocytes by measuring the rate of germinal vesicle breakdown (GVB) relative to FF-MAS; na means Not active; format: functional

Question: How did the Relative activity turn out when `C[C@@H](CO)CCC[C@@H](C)[C@H]1CCC2C3CC=C4C[C@@H](O)CC[C@]4(C)C3CC[C@@]21C` (stereo partly drawn) was run?
Answer: inactive

Question: `C[C@@H](CO)CCC[C@@H](C)[C@H]1CC=C2C3=C(CC[C@@]21C)[C@@]1(C)CC[C@H](O)C(C)(C)[C@@H]1CC3` was tested. Which Relative activity did it give?
Answer: inactive

species on record: Mus musculus; test: Tested for ability to induce meiosis in immature mouse oocytes by measuring the rate of germinal vesicle breakdown (GVB) relative to FF-MAS; format: functional; set-up: concentration or dose not given beside the values

Question: `C[C@H](CCCC(C)(C)Cl)[C@H]1CC=C2C3=C(CC[C@@]21C)[C@@]1(C)CC[C@H](O)C(C)(C)[C@@H]1CC3` was tested. Which Relative activity did it give?
Answer: 62%

Question: Which Relative activity does the source give for `C=C(C)CCC[C@@H](C)[C@H]1CC=C2C3=C(CC[C@@]21C)[C@@]1(C)CC[C@H](O)C(C)(C)[C@@H]1CC3` here?
Answer: 106%

Question: `CC(CO)CCC[C@@H](C)[C@H]1CC[C@H]2[C@@H]3CC=C4C(C)(C)[C@@H](O)CC[C@]4(C)[C@H]3CC[C@]12C` (single isomer, unassigned) was tested. Which Relative activity did it give?
Answer: 71%

Question: With `C[C@@H](CCl)CCC[C@@H](C)[C@H]1CC=C2C3=C(CC[C@@]21C)[C@@]1(C)CC[C@H](O)C(C)(C)[C@@H]1CC3` as the molecule, how does the Relative activity read?
Answer: 87%

Question: For `C[C@@H](CI)CCC[C@@H](C)[C@H]1CC=C2C3=C(CC[C@@]21C)[C@@]1(C)CC[C@H](O)C(C)(C)[C@@H]1CC3`, which Relative activity is on record?
Answer: 85%

Question: For `C[C@@H](CO)CCC[C@@H](C)[C@H]1CCC2C3=CC=C4C(C)(C)[C@@H](O)CC[C@]4(C)C3CC[C@@]21C` (stereo partly drawn), which Relative activity is on record?
Answer: 89%

Question: With `CC(C)CCC[C@@H](C)[C@H]1[C@@H](O)CC2C3CC=C4CCCC[C@]4(C)C3CC[C@@]21C` (stereo partly drawn) as the molecule, how does the Relative activity read?
Answer: 87%

Question: For `CC(C)CCC[C@@H](C)[C@H]1[C@@H](O)CC2C3=CC=C4C(C)(C)[C@@H](O)CC[C@]4(C)C3CC[C@@]21C` (stereo partly drawn), which Relative activity is on record?
Answer: 90%

Question: How did the Relative activity turn out when `CC(C)CCC[C@@H](C)[C@H]1[C@@H](O[Si](C)(C)C(C)(C)C)CC2C3CC=C4C[C@@H](O)CC[C@]4(C)C3CC[C@@]21C` (stereo partly drawn) was run?
Answer: 43%

Question: For `CC(C)CCC[C@@H](C)[C@H]1[C@@H](O)CC2C3CC=C4C(C)(C)[C@@H](O)CC[C@]4(C)C3CC[C@@]21C` (stereo partly drawn), which Relative activity is on record?
Answer: 113%

species on record: Mus musculus; test: Tested for ability to induce meiosis in immature mouse oocytes by measuring the rate of germinal vesicle breakdown (GVB); format: functional

Question: With `CC(C)=CCC[C@@H](C)[C@H]1CC=C2C3=C(CC[C@@]21C)[C@@]1(C)CC[C@H](O)C(C)(C)[C@@H]1CC3` as the molecule, how does the Activity read?
Answer: 100%
